Measured values reported in patent US11912723B2, “KRAS modulators and uses thereof” (Quanta Therapeutics, Inc., priority 2022, dated 2024).
pIC50: −log10 of the molar value.

Assays:
[1] = target: T1, GST-tagged KRAS G12D (2-169) (Homo sapiens, UniProt P01116, G12D); experiment: Nucleotide exchange assay (NEA), HTRF of SOS-mediated GTP-DY-647P1 binding; assay type: biochemical; conditions: 5 nM GST-KRAS G12D, 20 nM SOScat, 150 nM GTP; compound 1 h at RT
T1 construct: GST-tagged KRAS^G12D (2-169, Reaction Biology, MSC-11-539); purchased Reaction Biology MSC-11-539 (KRAS G12D); MSC-11-502 (SOS1cat)
T1 sequence (P01116 2-169 isoform P01116-2 G12D): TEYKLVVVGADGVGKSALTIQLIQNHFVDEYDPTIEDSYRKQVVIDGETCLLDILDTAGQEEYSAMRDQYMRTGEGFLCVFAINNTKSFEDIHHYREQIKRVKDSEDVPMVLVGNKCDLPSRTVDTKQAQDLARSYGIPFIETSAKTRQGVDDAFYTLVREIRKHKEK
Excerpt: This activity is tightly regulated by GTPase activating proteins (GAPs) and guanine nucleotide exchange factors (GEFs). GEFs, such as SOS1/2, activate Ras proteins by exchanging GDP for GTP, thus returning Ras to its active conformation (Simanshu, Nissley, & McCormick, 2017). […] Homogenous time resolved fluorescence (HTRF) was used to detect SOS-mediated binding of a fluorescent GTP analog, GTP-DY-647P1 (Jena Biosciences NU-820-647P1) to GST-tagged KRAS^G12D (2-169, Reaction Biology, MSC-11-539).
GST-tagged KRAS^G12D (2-169) and anti-GST MAb Tb Cryptate Gold (CisBio 61GSTTLB) were diluted into assay buffer (20 mM HEPES, pH 7.3, 150 mM NaCl, 5 mM MgCl2, 0.05% BSA 0.0025% NP40, 1 mM DTT) to prepare a 2.5× donor solution. 5× compound was added to the protein mixture and incubated for 1 h at RT. 2.5× acceptor solution containing SOS1cat (564-1049, Reaction Biology MSC-11-502) and GTP-DY-647P1 were then added to the donor KRAS mixture such that the final concentration of the reaction contained 5 nM GST-tagged KRAS^G12D (2-169), 20 nM SOScat, and 150 nM GTP. The reaction was monitored using at RT with the Envision multimode plate reader (Ex/Em 337/665, […]) up to 90 minutes at 5 minute intervals. Data was blanked to reactions without SOS1 and % inhibition was calculated such that DMSO only=0% and blank=100%. Curve fitting was done using a 4 parameter fit. NEA KRAS G12D ID50 (uM) values of selected compounds are depicted in Table 2 with compounds having a value<0.01 uM as ++++; >0.01 uM to 0.1 uM as +++; >0.1 uM to 1 uM as ++; >1 uM to 20 uM as +; and >20 uM as NA.

[2] = target: T2, KRAS G12D/RAF1 (Homo sapiens, UniProt P01116, G12D); experiment: Protein-protein interaction (PPI) HTRF assay KRAS G12D/RAF1; assay type: binding; conditions: KRAS G12D/RAF1, GppNHp-loaded KRAS; 30 minutes pre-incubation
T2 construct: KRAS (1-169) proteins were expressed in E. coli at 18° C; His6-MBP (N, cleaved yes); made in house; host or cells: E. coli
T2 sequence (P01116 1-169 isoform P01116-2 G12D): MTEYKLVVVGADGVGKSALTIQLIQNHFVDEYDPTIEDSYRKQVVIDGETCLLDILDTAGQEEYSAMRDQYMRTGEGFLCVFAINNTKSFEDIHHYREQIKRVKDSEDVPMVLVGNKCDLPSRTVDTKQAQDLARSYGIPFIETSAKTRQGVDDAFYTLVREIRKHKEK
Protocol: Biotinylated KRAS wt and KRAS G12DNV proteins were expressed and purified in conditions similar to those previously reported (Tran, et al., 2021) (Zhang, et al., 2020). Briefly, KRAS (1-169) proteins were expressed in E. coli at 18° C. with an upstream TEV cleavage site (ENLFYQS) followed an Avi tag sequence ([…]). KIRAS expression constructs contained both a His6 and maltose-binding protein (MBP) tags at the N-terminus for Ni-NTA column purification prior to overnight TEV cleavage and MBP column purification. The avi-tagged NRAS expression construct contained both a His6 tag and SUMO cleavage sige at the N-terminus for Ni-NTA column purification followed by His-ULP1 digestion overnight. All avi-tagged RAS proteins were dialyzed into buffer containing ATP, biotin, and BirA followed by purification over a second Ni-NTA column and then run over a size exclusion HiLoad™ 26/600 Superdex™ column in 20 mM HEPES, pH 7.5, 300 mM NaCl, 5 mM MgCl2, and 1 mM TCEP. Fractions containing the protein of interest were pooled, concentrated, and confirmed by intact mass spectrometry. To prepare ‘GTP’ loaded KRAS and NRAS, biotinylated KRAS or NRAS was nucleotide exchanged from GDP-bound protein to GppNHp-bound (Jena Biosciences, NU-401-50) protein in the presence of alkaline phosphatase and excess GppNHp as previously described and the resulting nucleotide content was confirmed by HPLC reverse phase analytical chromatography (Donohue, et al., 2019) (Tran, et al., 2021).
His-tagged RAF1 (52-131) was similarly expressed in E. coli at 18° C. overnight with an upstream TEV cleavage site. His-tagged RAF1 expression construct contained both a His6 and MBP tags at the N-terminus for Ni-NTA column purification followed by MBP-tagged TEV digestion overnight. RAF1 protein samples were further purified over a MBP column followed by a Ni-NTA column and a second MBP column. The fractions containing the protein of interest were pooled, concentrated, and further purified over a HiLoad™ 16/600 Superdex™ 75 pg size exclusion column into 20 mM HEPES, pH8.0, 200 mM NaCl, 5 mM TCEP.
When RAS proteins are in the active GTP-bound conformation, they bind the effector protein RAF1 at the N-terminus Ras-binding domain (RBD, residues 52-131) (Tran, et al., 2021). Homogenous time resolved fluorescence (HTRF) was used to monitor the interaction between wt or mutant KRAS and RAF1 or wt NRAS and RAFT. Compounds were assayed in the presence of KRAS G12D/V and RAF1 versus wt KRAS to assess activity against mutant and w.t. KRAS. Similarly, compounds were then assayed in the presence of w.t. NRAS and RAF1 to assess RAS isoform selectivity. In all assay formats, His-tagged RAF1 protein was incubated with the HTRF donor, anti-6His Tb Cryptate gold (Cisbio 61DB10RDF), and biotinylated RAS proteins were incubated with the HTRF acceptor, streptavidin-d2 (CisBio 610SADLA). The intensity of the fluorescence signal emitted is proportional to binding between the two proteins. The donor solution was prepared by mixing 16 nM His-tagged RAF1 in protein dilution buffer with 1:100 anti-6His Tb cryptate in PPI-Terbium detection buffer. 16 nM biotinylated RAS protein was diluted into protein dilution buffer (50 mM Tris-HCl pH 7.5, 150 mM NaCl, 0.1 mM MgCl2, 1 mM TCEP, 0.005% Tween20) and mixed with 1:2000 Streptavidin-d2 diluted in PPI-Terbium detection buffer (CisBio 61DB10RDF). 50× compound in DMSO was mixed with 16 nM KRAS-acceptor solution and incubated for 30 minutes at room temperature. After compound pre-incubation with KRAS, the RAF1 donor solution was added to the KRAS-acceptor solution and incubated for 1 hour at room temperature. The fluorescence signal emitted was monitored at 665 nm and 615 nm using an Envision multimode plate reader. The HTRF ratio (665/615) was calculated and normalized to 0% inhibition in the absence of compound and 100% inhibition in the presence of untagged RAF1 protein. […]

SMILES: O=C1NC(=O)[C@@H]2CN(c3nc(OC[C@@]45CCCN4C[C@H](F)C5)nc4c3CO[C@@]3(CCc5c(Cl)cccc53)C4)C[C@H]12 [Compound 33, (3aR,6aS)-5-[(7S)-4′-chloro-2-[[(2R,8S)-2-fluoro-1,2,3,5,6,7-hexahydropyrrolizin-8-yl]methoxy]spiro[5,8-dihydropyrano[4,3-d]pyrimidine-7,1′-indane]-4-yl]-3a,4,6,6a-tetrahydropyrrolo[3,4-c]pyrrole-1,3-dione]
- pIC50 [1]: 6.00 to 7.00
- pIC50 [2]: 4.00 to 5.00

SMILES: CC(C)NC(=O)c1cc2n(n1)CCCN(c1nc(OC[C@@]34CCCN3C[C@H](F)C4)nc3c1CO[C@@]1(CCc4c(Cl)cccc41)C3)C2 [Compound 35, 5-[(7S)-4′-chloro-2-[[(2R,8S)-2-fluoro-1,2,3,5,6,7-hexahydropyrrolizin-8-yl]methoxy]spiro[5,8-dihydropyrano[4,3-d]pyrimidine-7,1′-indane]-4-yl]-N-isopropyl-4,6,7,8-tetrahydropyrazolo[1,5-a][1,4]diazepine-2-carboxamide]
- pIC50 [1]: 7.00 to 8.00
- pIC50 [2]: < 4.00

SMILES: CN(C)C(=O)c1nn2c(c1Cl)CN(c1nc(OC[C@@]34CCCN3C[C@H](F)C4)nc3c1CO[C@@]1(CCc4c(Cl)cccc41)C3)CCC2 [Compound 36, 3-chloro-5-[(7S)-4′-chloro-2-[[(2R,8S)-2-fluoro-1,2,3,5,6,7-hexahydropyrrolizin-8-yl]methoxy]spiro[5,8-dihydropyrano[4,3-d]pyrimidine-7,1′-indane]-4-yl]-N,N-dimethyl-4,6,7,8-tetrahydropyrazolo[1,5-a][1,4]diazepine-2-carboxamide]
- pIC50 [1]: > 8.00
- pIC50 [2]: 4.00 to 5.00

SMILES: CN(O)C(=O)c1cc2n(n1)CCCN(c1nc(OC[C@@]34CCCN3C[C@H](F)C4)nc3c1CO[C@@]1(CCc4c(Cl)cccc41)C3)C2 [Compound 37, 5-[(7S)-4′-chloro-2-[[(2R,8S)-2-fluoro-1,2,3,5,6,7-hexahydropyrrolizin-8-yl]methoxy]spiro[5,8-dihydropyrano[4,3-d]pyrimidine-7,1′-indane]-4-yl]-N-hydroxy-N-methyl-4,6,7,8-tetrahydropyrazolo[1,5-a][1,4]diazepine-2-carboxamide]
- pIC50 [1]: > 8.00
- pIC50 [2]: < 4.00

SMILES: O=C(c1cc2n(n1)CCCN(c1nc(OC[C@@]34CCCN3C[C@H](F)C4)nc3c1CO[C@@]1(CCc4c(Cl)cccc41)C3)C2)N1CCOCC1 [Compound 38, morpholino-[5-[(7S)-4′-chloro-2-[[(2R,8S)-2-fluoro-1,2,3,5,6,7-hexahydropyrrolizin-8-yl]methoxy]spiro[5,8-dihydropyrano[4,3-d]pyrimidine-7,1′-indane]-4-yl]-4,6,7,8-tetrahydropyrazolo[1,5-a][1,4]diazepin-2-yl]methanone; 2,2,2-trifluoroacetic acid]
- pIC50 [1]: > 8.00
- pIC50 [2]: 4.00 to 5.00

SMILES: CN(C)C(=O)c1cc2n(n1)CCCN(c1nc(OC[C@@]34CCCN3C[C@H](F)C4)nc3c1COC1(CCCc4ccc(O)c(Cl)c41)C3)C2 (stereo partly drawn) [Compound 40, 5-[8′-chloro-7′-hydroxy-2-[[(2R,8S)-2-fluoro-1,2,3,5,6,7-hexahydropyrrolizin-8-yl]methoxy]spiro[5,8-dihydropyrano[4,3-d]pyrimidine-7,1′-tetralin]-4-yl]-N,N-dimethyl-4,6,7,8-tetrahydropyrazolo[1,5-a][1,4]diazepine-2-carboxamide]
- pIC50 [1]: 7.00 to 8.00
- pIC50 [2]: < 4.00

SMILES: N=S1(=O)CCN(C(=O)c2nn3c(c2Cl)CN(c2nc(OC[C@@]45CCCN4C[C@H](F)C5)nc4c2CO[C@@]2(CCc5c(Cl)cccc52)C4)CCC3)CC1 [Compound 52, [3-chloro-5-[(7S)-4′-chloro-2-[[(2R,8S)-2-fluoro-1,2,3,5,6,7-hexahydropyrrolizin-8-yl]methoxy]spiro[5,8-dihydropyrano[4,3-d]pyrimidine-7,1′-indane]-4-yl]-4,6,7,8-tetrahydropyrazolo[1,5-a][1,4]diazepin-2-yl]-(1-imino-1-oxo-1,4-thiazinan-4-yl)methanone]
- pIC50 [1]: > 8.00
- pIC50 [2]: 4.00 to 5.00
